Source: patent US20220264878A1, “HERBICIDAL COMPOSITION CONTAINING R-TYPE PYRIDYLOXY CARBOXYLIC ACID DERIVATIVE AND USE THEREOF” (Qingdao Kingagroot Chemical Compound Co., Ltd., priority 2019, published 2022)

Tests used:
Test in all cases: Post-emergence foliage spray, pot culture, fresh weight inhibition (Tables 1-48, 51-98, 101-148; 24 days)
Assay type in all cases: in vivo
[1] = tested on: Solanum nigrum
Source text: (§1) Table 1-48, 51-98, 101-148: Echinochloa crusgalli var. zelayensis, Eclipta prostrate, Galium aparine L., Alopecurus aequalis, Alopecurus japonicus, Lindernia procumbens, Veronica persica^1, Malachium aquaticum, Beckmannia syzigachne, Stellaria media were collected in Huai'an of Jiangsu Province; Commelina communis, Sonchus arvensis, Setaria glauca, Chloris virgata, Setaria faberi, Sonchus oleraceus L., Echinochloa oryzoides, Cirsium setosum, Xanthium strumarium were collected in Qiqiha'er of Heilongjiang Province; Sinapis arvensis, Veronica persica^2 were collected in Zhumadian of Henan Province; Ludwigia prostrate, Ammannia arenaria were collected in Zhuji of Zhejiang Province; Amaranthus retrojlexus, Descurainia sophia, Digitaria sanguinalis, Setaria viridis, Conyza Canadensis, Capsella bursa-pastoris, Eleusine indica, Ipomoea purpurea, Abutilon theophrasti, Chenopodium album, Acalypha australis, Solanum nigrum were collected in Qingdao of Shandong Province; Echinochloa caudate were collected in Pingluo of Ningxia Province.
(§2) The above weeds were cultivated by a pot culture method. […] Full and uniform weed seeds were selected, soaked in warm water at 25° C. for 6 hours, and germinated in a 28° C. biochemical incubator (darkness). The weed seeds that had just germinatedwere evenly placed on the surface of the soil and then covered with 0.5-1 cm soil according to the sizes of seeds.
(§3) The culture was carried out in a controllable sunlight greenhouse at 20 to 30° C., in natural light, and relative humidity of 57% to 72%.
(§4) The technical materials were all dissolved in acetone, and diluted with an aqueous solution containing 0.1% emulsifier Tween-80. The dilution is performed as required.
(§5) A ratio of the active ingredient A to the active ingredient B and amounts thereof in each group depends on the characteristics and toxicity of the two agents, as well as the main application purpose of a corresponding formulation. Based on the pre-tests in this study, the dosage of the active ingredient A and B applied alone and in combination were shown in the tables. Water containing the solvent and emulsifier same with the above groups but free of the agents was used as a blank control.
(§6) Table 1-48, 51-98, 101-148, 151-206: […] per treatment, that is, a total of 60 weeds were treated in one treatment.
(§7) Table 1-48, 51-98, 101-148: The agents were used for only once in the experiment. In the stage of weeds with 3˜4 leaves, the weeds were thinned out to maintain 15 weeds per pot and 45 weeds for each treatment, then continued to be cultured to 5˜6 leaves stage of grassy weeds, 6˜7 leaves stage of broadleaf weeds, and treated.
(§8) The well-cultured weeds were evenly placed on a platform with an area of 0.5 m^2, and a solution of agents was sprayed on the stems and leaves thereof by the 3WP-2000-type walking spray tower at a dosage of 450 kg/ha and at a spray pressure of 0.3 MPa. After all the solution was sprayed, the valve was closed. After 30 seconds, the door of the spray tower was opened, and the nutritional bowl was taken out. Then the valve was opened, and the spray tube was cleaned by spraying 50 ml of water.
(§9) A pot-culture method was employed. For the cultivation of weeds, please refer to the Section 1.1), and “Pesticide guidelines for laboratory bioactivity tests—herbicides”. As to a method for applying agents, please refer to the section 2.3.2), that is, a foliage treatment was employed. After the treatment, the weeds were routinely cultured in a greenhouse.
(§10) A method for investigating absolute number was employed, wherein whole seedlings of survival weeds were cut off with a blade along the soil surface, and the fresh weight of the weeds was weighed with an analytical balance. For dead weeds, the fresh weight thereof was zero.
(§11) Table 1-48, 51-98, 101-148, 207-216: The investigation was performed after 24 days of the treatment for only once.

[2] = tested on: Veronica persica^2 (collected in Zhumadian of Henan Province)
Source text: as §1, §2, §3, §4, §5, §6, §7, §8, §9, §10, §11

[3] = tested on: Chloris virgata
Source text: as §1, §2, §3, §4, §5, §6, §7, §8, §9, §10, §11

[4] = tested on: Eleusine indica; conditions: Table 79
Source text: as §1, §2, §3, §4, §5, §6, §7, §8, §9, §10, §11

With `CCOC(=O)C(Cl)Cc1cc(-n2nc(C)n(C(F)F)c2=O)c(F)cc1Cl` (stereo not drawn) [carfentrazone-ethyl] the “Control effect (%) of B applied alone in corresponding dose” value (“Control effect (%) of B applied alone” for short) ([1]; B 1.875 g a.i./ha) was 6.3%, the “Control effect (%) of B applied alone” value ([1]; B 3.75 g a.i./ha) was 12.1% and the “Control effect (%) of B applied alone” value ([1]; B 7.5 g a.i./ha) was 38.0%. For the same compound, the “Control effect (%) of B applied alone” value ([1]; B 15 g a.i./ha) was 68.7%, the “Control effect (%) of B applied alone” value ([2]; Table 90, 1.875 g a.i./ha) was 2.6% and the “Control effect (%) of B applied alone” value ([2]; Table 90, 3.75 g a.i./ha) was 11.6%. The “Control effect (%) of B applied alone” value ([2]; Table 90, 7.5 g a.i./ha) was 36.2% and the “Control effect (%) of B applied alone” value ([2]; Table 90, 15 g a.i./ha) was 68.2%.
For `O=C(Nc1ccc(F)cc1F)c1cccnc1Oc1cccc(C(F)(F)F)c1` [diflufenican], the “Control effect (%) of B applied alone” value ([1]; B 15 g a.i./ha) was 6.0%, the “Control effect (%) of B applied alone” value ([1]; B 30 g a.i./ha) was 15.0% and the “Control effect (%) of B applied alone” value ([1]; B 60 g a.i./ha) was 41.7%. The “Control effect (%) of B applied alone” value ([1]; B 120 g a.i./ha) was 76.5%, the “Control effect (%) of B applied alone” value ([2]; Table 87, 15 g a.i./ha) was 2.3% and the “Control effect (%) of B applied alone” value ([2]; Table 87, 30 g a.i./ha) was 10.2%. For the same compound, the “Control effect (%) of B applied alone” value ([2]; Table 87, 60 g a.i./ha) was 40.3% and the “Control effect (%) of B applied alone” value ([2]; Table 87, 120 g a.i./ha) was 76.2%.
With `CCn1ncc(C(=O)c2ccc(S(C)(=O)=O)c(COCC(F)(F)F)c2Cl)c1OC(=O)c1cn(C)nc1C` [fenpyrazone] the “Control effect (%) of B applied alone” value ([3]; B 7.5 g a.i./ha) was 5.5%, the “Control effect (%) of B applied alone” value ([3]; B 15 g a.i./ha) was 14.8% and the “Control effect (%) of B applied alone” value ([3]; B 30 g a.i./ha) was 39.9%. For the same compound, the “Control effect (%) of B applied alone” value ([3]; B 60 g a.i./ha) was 79.2%, the “Control effect (%) of B applied alone” value ([4]; 7.5 g a.i./ha) was 2.9% and the “Control effect (%) of B applied alone” value ([4]; 15 g a.i./ha) was 10.9%. For the same compound, the “Control effect (%) of B applied alone” value ([4]; 30 g a.i./ha) was 38.6% and the “Control effect (%) of B applied alone” value ([4]; 60 g a.i./ha) was 79.1%.
